Assay results taken from US8669206B2, “Composition and method for controlling arthropod pests” (Sumitomo Chemical Company, Limited, priority 2009, dated 2014).

Key:
Assay type in all cases: in vivo
Pseudaletia separata [1] = test: Test Example 1: control of Pseudaletia separata larvae on rice seedlings, treatment at the foot of the seedlings; conditions: single compound, 5 mL/cup, larvae released after 2 days, counted after 3 days
Protocol: The compound I was dissolved in water to prepare an aqueous solution having a prescribed concentration. Also, the compound (1) (Coragen (registered trademark), product of DuPont) was diluted with water to prepare a chemical solution of the compound. These solutions were appropriately mixed to prepare a test mixed chemical solution having a prescribed concentration of the compound I and the compound (1).
(§1) A 90 mL plastic cup was filled with cultivation soil and 15 rice seeds were sown.
(§2) Two weeks after seedlings emerged, the foot of rice seedlings were treated with the test mixed chemical solution (5 mL/plastic cup). After 2 days, 30 of first-instar larvae of Pseudaletia separata were released per plastic cup. After 3 days, the number of surviving larvae was counted and the control rate was calculated using the equation A.
For comparison, tests were conducted in the same manner using a test aqueous solution having a prescribed concentration of the compound I, prepared by diluting an aqueous solution of the compound I with water, and a test aqueous solution having a prescribed concentration of the compound (1), prepared by diluting an aqueous solution of the compound (1) with water.
(§3) Control rate=100×(1−[(Ts/30)/(Cs/30)]) “Equation A” Ts and Cs represent the number of surviving larvae in a treated group and that in a non-treated group, respectively. Provided that, when the control rate is less than 0 (Ts>Cs), it is indicated by 0.

Pseudaletia separata [2] = test: Test Example 2: control of Pseudaletia separata larvae on rice seedlings, treatment at the foot of the seedlings; conditions: single compound, 5 mL/cup, larvae released after 2 days, counted after 3 days
Protocol: as §3
(§4) The compound I was dissolved in water to prepare an aqueous solution having a prescribed concentration. Also, the compound (2) was dissolved in a mixed solution (44:1) of acetone and Tween 20, followed by dilution with water to prepare a chemical solution. These solutions were appropriately mixed to prepare a test mixed chemical solution having a prescribed concentration of the compound I and the compound (2).
as §1
as §2, with “A in the same manner as in Test Example 1.” for “A.”
(§5) For comparison, tests were conducted in the same manner using a test aqueous solution having a prescribed concentration of the compound I, prepared by diluting an aqueous solution of the compound I with water, and a test chemical solution having a prescribed concentration of the compound (2), prepared by dissolving the compound (2) in a mixed solution (1:9) of acetone and Tween 20, followed by dilution with water.

Pseudaletia separata [3] = test: Test Example 3: control of Pseudaletia separata larvae on rice seedlings treated with chemical solution and air dried; conditions: single compound, 20 mL/cup, larvae released after air drying, counted after 3 days
Protocol: as §3
as §4, with “(3)” for “(2)”, “(3).” for “(2).”
A 90 mL plastic cup, was filled with cultivation soil and 15 rice seeds were sown.
as §2, with “the” for “the foot of”, “(20” for “(5”, “air dying,” for “2 days,”, “A in the same manner as in Test Example 1 and Test Example 2.” for “A.”
as §5, with “(3),” for “(2),”, “(3)” for “(2)”

Compound: CNC(=O)c1cc(Cl)cc(C)c1NC(=O)c1cc(Br)nn1-c1ncccc1Cl [Compound (1), chlorantraniliprole, reference compound]
- Control rate (%) (Pseudaletia separata [1]; 1.0 ppm): 78%
- Control rate (%) (Pseudaletia separata [1]; 3.0 ppm): 87%

Compound: CNC(=O)c1cc(C#N)cc(C)c1NC(=O)c1cc(Br)nn1-c1ncccc1Cl [Compound (2), cyantraniliprole, reference compound]
- Control rate (%) (Pseudaletia separata [2]; 1.0 ppm): 59%

Compound: CC(NC(=O)c1cc(Cl)cc(Br)c1NC(=O)c1cc(Br)nn1-c1ncccc1Cl)C1CC1 (stereo not drawn) [Compound (3), N-[2-bromo-4-chloro-6-[[α-methyl-(cyclopropylmethyl)amino]carbonyl]-phenyl]-3-bromo-1-(3-chloro-2-pyridinyl)-1H-pyrazole-5-carboxamide]
- Control rate (%) (Pseudaletia separata [3]; 0.3 ppm): 58%

Compound: O=C(O)CCC(=O)NCCc1ccccc1 [Compound I, 4-oxo-4-[(2-phenylethyl)amino]-butyric acid]
- Control rate (%) (Pseudaletia separata [1]; 10 ppm): 0%
- Control rate (%) (Pseudaletia separata [1]; 30 ppm): 0%
- Control rate (%) (Pseudaletia separata [1]; 100 ppm): 0%
- Control rate (%) (Pseudaletia separata [2]; 30 ppm): 0%
- Control rate (%) (Pseudaletia separata [2]; 100 ppm): 0%
- Control rate (%) (Pseudaletia separata [3]; 10 ppm): 0%
- Control rate (%) (Pseudaletia separata [3]; 30 ppm): 0%
- Control rate (%) (Pseudaletia separata [3]; 100 ppm): 0%
